The nature of the series: in vitro. The conditions noted are these: human, 293T cells.

The text below walks through data of patent publication US20230158136A1 (priority 2021, published 2023).

Where no end group is shown, it is not given here.

KKALLAHALHLLALLALHLAHALKKA-NH2 [LAH4] registered a CC50 at 24 h of over 125 µg/mL.

In general, CC50 refers to the concentration at which the toxic effect on the cells reaches its halfway point.
